This note sets out measurements from patent US9572891B2, “Oligonucleotide conjugates” (Geron Corporation, priority 2001, dated 2017).

For this data set, the target named is T1, telomerase (Homo sapiens, UniProt O14746).
T1 construct: made in house; host or cells: 293 cells over-expressing hTERT
Description: Bio-Tel FlashPlate telomerase inhibition assay. The format is biochemical. On the procedure:
Extracts used for screening telomerase inhibitors were routinely prepared from 293 cells over-expressing the protein catalytic subunit of telomerase (hTERT). […] 200 ml of packed cells (harvested from about 100 liters of culture) were resuspended in an equal volume of hypotonic buffer (10 mM Hepes pH 7.9, 1 mM MgCl2, 1 mM DTT, 20 mM KCl, 1 mM PMSF) and lysed using a dounce homogenizer. The glycerol concentration was adjusted to 10% and NaCl was slowly added to give a final concentration of 0.3 M. The lysed cells were stirred for 30 min and then pelleted at 100,000×g for 1 hr. Solid ammonium sulfate was added to the S100 supernatant to reach 42% saturation. The material was centrifuged; the pellet was resuspended in one fifth of the original volume and dialyzed against Buffer ‘A’ containing 50 mM NaCl. After dialysis the extract was centrifuged for 30 min at 25,000×g. Prior to affinity chromatography, Triton X-100™ (0.5%), KCl (0.3 M) and tRNA ([…]) were added. Affinity oligonucleotide (5′-biotinTEG-biotinTEG-biotinTEG-GTA GAC CTG TTA CCA guu agg guu ag 3′ [SEQ ID NO: 16]; lower case represents 2′ O-methyl ribonucleotides and upper case represents deoxynucleotides) was added to the extract (1 nmol per 10 ml of extract). After an incubation of 10 min at 30° C., Neutravidin beads (Pierce; 250 μl of a 50% suspension) were added and the mixture was rotated overnight at 4° C. The beads were pelleted and washed three times with Buffer ‘B’ containing 0.3 M KCl, twice with Buffer ‘B’ containing 0.6 M KCl, and twice more with Buffer B containing 0.3 M KCl. Telomerase was eluted in Buffer ‘B’ containing 0.3 M KCl, 0.15% Triton X-100™ and a 2.5 molar excess of displacement oligonucleotide (5′-CTAACCCTAACTGGTAACAGGTCTAC-3′ [SEQ ID NO: 17] at 0.5 ml per 125 μl of packed Neutravidin beads) for 30 min. at room temperature. A second elution was performed and pooled with the first. Purified extracts typically had specific activities of 10 fmol nucleotides incorporated/min/μl extract, or 200 nucleotides/min/mg total protein.
A suitable assay for detection and/or measurement of telomerase activity is based on a measurement of the addition of TTAGGG (SEQ ID NO. 8) telomeric repeats to a biotinylated telomerase substrate primer, a reaction catalyzed by telomerase. The biotinylated products are captured in streptavidin-coated microtiter plates. An oligonucleotide probe complementary to 3.5 telomere repeats labeled with ^33P is used for measuring telomerase products, as described below. Unbound probe is removed by washing and the amount of probe annealing to the captured telomerase products is determined by scintillation counting.
The data provided in Tables 1 and 2 below were obtained by performing the assay as described below: • 1. Oligonucleotide conjugates were stored as concentrated stocks and dissolved in PBS. • 2. For testing, the oligonucleotide conjugates were diluted to a 15× working stock in PBS and 2 μl was dispensed into two wells of a 96-well microtiter dish (assayed in duplicate). • 3. Telomerase extract was diluted to a specific activity of 0.04-0.09 fmol dNTP incorporated/min./μl in Telomerase Dilution Buffer and 18 μl added to each sample well to preincubate with compound for 30 minutes at room temperature. • 4. The telomerase reaction was initiated by addition of 10 μl Master Mix to the wells containing telomerase extract and oligonucleotide compound being tested. The plates were sealed and incubated at 37° C. for 90 min. • 5. The reaction was stopped by the addition of 10 μl HCS. • 6. 25 μl of the reaction mixture was transferred to a 96-well streptavidin-coated FlashPlate™ (NEN) and incubated for 2 hours at room temperature with mild agitation. • 7. The wells were washed three times with 180 μl 2×SSC without any incubation.
8. The amount of probe annealed to biotinylated telomerase products was detected in a scintillation counter.

Setting [1] is: Table 1, oligonucleotide has N3′→P5′ phosphoramidate (NP) internucleoside linkages, read-out: IC50 NP.
Setting [2] is: Table 1, oligonucleotide has N3′→P5′ thio-phosphoramidate (NPS) internucleoside linkages, read-out: IC50 NPS.
Setting [3] is: Table 2, oligonucleotide has N3′→P5′ thio-phosphoramidate (NPS) internucleoside linkages, read-out: IC50 NPS.

Values joined by “and” are separate entries in the source; they are usually repeats but may differ in a detail not shown here. Identical values can stand only once. Like-named read-outs stand apart in the source and are kept apart here.

T1 sequence (O14746 whole entry): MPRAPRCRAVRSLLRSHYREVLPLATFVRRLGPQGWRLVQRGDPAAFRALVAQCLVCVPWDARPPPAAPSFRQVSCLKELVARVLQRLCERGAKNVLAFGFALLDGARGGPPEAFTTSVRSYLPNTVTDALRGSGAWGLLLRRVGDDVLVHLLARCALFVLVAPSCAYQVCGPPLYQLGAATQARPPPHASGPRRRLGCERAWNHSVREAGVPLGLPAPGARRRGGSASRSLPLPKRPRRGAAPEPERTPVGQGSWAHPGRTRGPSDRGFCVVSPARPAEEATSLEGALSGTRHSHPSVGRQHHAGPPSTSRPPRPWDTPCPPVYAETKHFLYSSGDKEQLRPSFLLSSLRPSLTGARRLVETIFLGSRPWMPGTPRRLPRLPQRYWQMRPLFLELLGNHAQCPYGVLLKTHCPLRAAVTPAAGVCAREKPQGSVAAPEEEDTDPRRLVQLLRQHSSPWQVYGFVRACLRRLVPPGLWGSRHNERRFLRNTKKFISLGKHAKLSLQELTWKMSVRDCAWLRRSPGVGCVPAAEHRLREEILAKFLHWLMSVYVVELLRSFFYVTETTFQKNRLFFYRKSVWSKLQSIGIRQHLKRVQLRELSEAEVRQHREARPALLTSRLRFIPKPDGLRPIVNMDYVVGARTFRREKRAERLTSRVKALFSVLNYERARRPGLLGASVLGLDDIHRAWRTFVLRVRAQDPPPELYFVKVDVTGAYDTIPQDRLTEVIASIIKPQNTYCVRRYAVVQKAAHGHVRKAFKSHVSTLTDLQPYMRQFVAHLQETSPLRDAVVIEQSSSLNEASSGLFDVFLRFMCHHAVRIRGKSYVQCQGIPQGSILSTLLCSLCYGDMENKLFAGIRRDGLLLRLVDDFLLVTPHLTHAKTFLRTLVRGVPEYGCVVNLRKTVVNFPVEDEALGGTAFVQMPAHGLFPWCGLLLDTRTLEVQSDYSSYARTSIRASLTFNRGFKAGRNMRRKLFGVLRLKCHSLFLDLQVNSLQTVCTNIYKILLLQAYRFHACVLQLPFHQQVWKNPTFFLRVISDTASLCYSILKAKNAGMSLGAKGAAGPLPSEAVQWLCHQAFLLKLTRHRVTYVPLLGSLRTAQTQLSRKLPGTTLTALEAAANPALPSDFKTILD
T1 sequence (O60832 whole entry partner): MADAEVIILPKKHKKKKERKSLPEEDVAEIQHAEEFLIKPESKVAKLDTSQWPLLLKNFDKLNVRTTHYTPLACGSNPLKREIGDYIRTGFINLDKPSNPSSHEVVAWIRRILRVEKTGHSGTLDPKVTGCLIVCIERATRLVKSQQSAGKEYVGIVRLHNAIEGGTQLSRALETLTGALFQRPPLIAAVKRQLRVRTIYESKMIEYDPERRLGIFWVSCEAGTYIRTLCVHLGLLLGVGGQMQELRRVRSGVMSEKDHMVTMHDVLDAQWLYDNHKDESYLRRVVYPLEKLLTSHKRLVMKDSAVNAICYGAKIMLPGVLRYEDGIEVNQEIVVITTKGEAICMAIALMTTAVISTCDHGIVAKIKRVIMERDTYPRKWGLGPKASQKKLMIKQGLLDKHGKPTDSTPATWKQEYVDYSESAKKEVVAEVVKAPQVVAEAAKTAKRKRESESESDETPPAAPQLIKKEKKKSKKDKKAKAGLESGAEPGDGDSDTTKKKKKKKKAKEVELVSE
T1 sequence (Q9NPE3 whole entry partner): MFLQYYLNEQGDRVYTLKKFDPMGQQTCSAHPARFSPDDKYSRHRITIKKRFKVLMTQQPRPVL
T1 sequence (Q9NX24 whole entry partner): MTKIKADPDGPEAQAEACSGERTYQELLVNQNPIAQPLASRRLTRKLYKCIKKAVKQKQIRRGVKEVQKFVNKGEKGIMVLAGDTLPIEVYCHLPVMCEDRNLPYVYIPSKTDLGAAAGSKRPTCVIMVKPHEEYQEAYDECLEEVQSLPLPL
T1 sequence (Q9NY12 whole entry partner): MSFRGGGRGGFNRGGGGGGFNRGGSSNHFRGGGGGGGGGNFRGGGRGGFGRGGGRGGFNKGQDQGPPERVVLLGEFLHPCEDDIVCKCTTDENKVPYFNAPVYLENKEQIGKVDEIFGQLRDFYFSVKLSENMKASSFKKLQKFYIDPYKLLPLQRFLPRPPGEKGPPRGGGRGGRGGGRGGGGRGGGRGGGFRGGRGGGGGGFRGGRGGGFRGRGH

In the case of “GGGTTAG (unconjugated): unconjugated oligonucleotide GGGTTAG (SEQ ID: 6), tested with NP and with NPS internucleoside linkages”, the IC50 is, setting by setting: under setting [1], 600 nM; under setting [2], 9 nM and 5 nM and 10 nM and 8 nM; under setting [3], 9 nM and 5 nM and 10 nM.
With “GTTAGG (unconjugated): unconjugated oligonucleotide GTTAGG (SEQ ID: 7), NP and NPS forms”, the IC50 was 470 nM under setting [1] and 120 nM under setting [2].
In the case of “TTAGGG (unconjugated): unconjugated oligonucleotide TTAGGG (SEQ ID: 8), NP and NPS forms”, the IC50 is 11000 nM under setting [1]; 1200 nM under setting [2]; 1170 nM and 1000 to 55000 nM under setting [3].
